Source: US3984432A, “Color photographic recording material” (priority 1973, dated 1976)
Values belong to the compound of their own block, whether it stands above or below them.

Assay: Absorption maximum after colour development in a photographic silver halide layer according to Use Example I
Assay type: physicochemical
Details: for Abs.max., first of two maxima (subsidiary maximum) / Abs.max., second of two maxima (absorption maximum): pyrazolone coupling agents
Experimental: The compounds of the formulae which follow are prepared according to methods which are in themselves known, from the corresponding 4-equivalentcoupling agents (the corresponding compounds with hydrogen in the position marked with *, in place of the substituents drawn). With regard to methods of manufacture, compare DT-OS or DT-AS 1,236,332, 2,043,271, 1,547,672 or 1,187,477. Next to the formula, the absorption maximum in nm is specified in each case (see footnote to Table I). ##SPC8##
*)After colour development of the coupling agents in a photographic silve
halide layer according to Use Example I
0.3 mmol of coupling agent of the formula (215) is dissolved in 2.0 ml of tricresyl phosphate/methylene chloride (3:7). The methylene chloride is evaporated off, 6.0 ml of an 8% strength aqueous solution of sodium isopropylnaphthalene-sulphonate, 20.0 ml of 6% strength gelatine solution and 3.4 ml of water are added and the mixture is adjusted to pH 6.5 and emulsified for 5 minutes by means of an ultrasonic apparatus with an output of 100 watt.
5.0 of coupling agent emulsion freshly treated with ultrasonics, 3.3 ml of silver bromide emulsion of pH 6.5, containing 1.4% of silver and 6.0% of gelatine, 2.0 ml of 1% strength aqueous solution of the hardener of the formula [formula] and 1.7 ml of water are mixed with one another and cast at 40°C on a substrated glass plate of size 13 cm × 18 cm. After solidifying at 10° C, the plate is dried in a drying cabinet with circulating air at 32° C.
A strip cut to 4.0 cm × 6.5 cm is exposed to 500 Lux/cm^2 under a step wedge for 2 seconds and is subsequently treated at 24° C as follows: […]

Structure (SMILES): CCOP(=O)(CCCc1ccc(NC(=O)CC(=O)c2ccccc2)cc1)OCC [(101)]
Abs.max. (single maximum): 437 nm

Structure (SMILES): CCOP(=O)(Cc1ccc(NC(=O)CC(=O)c2ccccc2)cc1)OCC [(102)]
Abs.max. (single maximum): 438 nm

Structure (SMILES): CCOP(=O)(CCCc1ccc(NC(=O)CC(=O)C(C)(C)C)cc1)OCC [(103)]
Abs.max. (single maximum): 429 nm

Structure (SMILES): CCOP(=O)(CCCN(C)c1cccc(NC(=O)CC(=O)c2ccccc2)c1)OCC [(104)]
Abs.max. (single maximum): 435 nm

Structure (SMILES): CCCCOP(=O)(CC(=O)Nc1cccc(NC(=O)CC(=O)C(C)(C)C)c1)OCCCC [(105)]
Abs.max. (single maximum): 436 nm

Structure (SMILES): CCOP(=O)(CC(=O)Nc1cccc(NC(=O)CC(=O)c2ccccc2)c1)OCC [(106)]
Abs.max. (single maximum): 442 nm

Structure (SMILES): CCOP(=O)(OCC)C(C)(C)NC(=O)c1cccc(NC(=O)c2cccc(NC(=O)CC(=O)c3ccccc3)c2)c1 [(107)]
Abs.max. (single maximum): 444 nm

Structure (SMILES): CCOP(=O)(OCC)C(C)(C)NC(=O)c1cccc(NC(=O)CC(=O)c2ccccc2)c1 [(108)]
Abs.max. (single maximum): 440 nm

Structure (SMILES): CCOP(=O)(OCC)C(C)(C)NC(=O)c1cccc(NC(=O)CC(=O)c2ccc([N+](=O)[O-])cc2)c1 [(110)]
Abs.max. (single maximum): 440 nm

Structure (SMILES): CCOP(=O)(OCC)C(C)(C)NC(=O)c1cc(NC(=O)CC(=O)c2ccccc2)cc(C(=O)NC(C)(C)P(=O)(OCC)OCC)c1 [(111)]
Abs.max. (single maximum): 440 nm

Structure (SMILES): CCOP(=O)(CCCOc1cccc(C(=O)Nc2cccc(C(=O)CC(=O)Nc3cc(C)ccc3OC)c2)c1)OCC [(112)]
Abs.max. (single maximum): 440 nm

Structure (SMILES): CCCCOP(=O)(CCCOc1cc(OCCCP(=O)(OCCCC)OCCCC)cc(C(=O)Nc2ccc(NC(=O)CC(=O)C(C)(C)C)cc2)c1)OCCCC [(114)]
Abs.max. (single maximum): 431 nm

Structure (SMILES): CCCCOP(=O)(CCCOc1cc(OCCCP(=O)(OCCCC)OCCCC)cc(C(=O)Nc2cccc(NC(=O)CC(=O)C(C)(C)C)c2)c1)OCCCC [(115)]
Abs.max. (single maximum): 435 nm

Structure (SMILES): CCCCOP(=O)(CCCOc1cc(OCCCP(=O)(OCCCC)OCCCC)cc(C(=O)Nc2ccc(Cl)c(NC(=O)CC(=O)C(C)(C)C)c2)c1)OCCCC [(116)]
Abs.max. (single maximum): 444 nm

Structure (SMILES): CCCCOP(=O)(CCCOc1cc(OCCCP(=O)(OCCCC)OCCCC)cc(C(=O)Nc2ccc(C)c(NC(=O)CC(=O)C(C)(C)C)c2)c1)OCCCC [(117)]
Abs.max. (single maximum): 445 nm

Structure (SMILES): CCCCOP(=O)(CCCc1ccc(NC(=O)c2ccc(OC)c(NC(=O)CC(=O)C(C)(C)C)c2)cc1)OCCCC [(118)]
Abs.max. (single maximum): 438 nm

Abs.max. (single maximum): 434 nm
Structure (SMILES): CCCCC(CC)COP(=O)(CCCOc1cccc(C(=O)Nc2cccc(C(=O)CC(=O)Nc3cc(C)ccc3OC)c2)c1)OCC(CC)CCCC (stereo not shown) [(120)]

Structure (SMILES): CCCCOP(=O)(CCCOc1cccc(C(=O)Nc2cccc(C(=O)CC(=O)Nc3cc(C)ccc3OC)c2)c1)OCCCC [(121)]
Abs.max. (single maximum): 434 nm

Abs.max. (single maximum): 436 nm
Structure (SMILES): CCCCC(CC)COP(=O)(CCCOc1cccc(NC(=O)CC(=O)c2ccccc2)c1)OCC(CC)CCCC (stereo not shown) [(122)]

Structure (SMILES): CCCCOP(=O)(CCCOc1cccc(NC(=O)CC(=O)c2ccccc2)c1)OCCCC [(123)]
Abs.max. (single maximum): 436 nm

Structure (SMILES): CCCCOP(=O)(CCCc1ccc(NC(=O)CC(=O)c2ccccc2)cc1)OCCCC [(124)]
Abs.max. (single maximum): 436 nm

Structure (SMILES): CCCCOP(=O)(CCCc1ccc(NC(=O)CC(=O)c2ccc(Cl)cc2)cc1)OCCCC [(125)]
Abs.max. (single maximum): 440 nm

Structure (SMILES): CCCCOP(=O)(CCCc1ccc(NC(=O)c2ccc(OC)c(NC(=O)CC(=O)c3ccc(OC)cc3)c2)cc1)OCCCC [(126)]
Abs.max. (single maximum): 448 nm

Structure (SMILES): COc1ccc(C(=O)NCCCP(=O)(OC(C)C)OC(C)C)cc1NC(=O)CC(=O)c1ccc(Cl)cc1 [(127)]
Abs.max. (single maximum): 444 nm

Structure (SMILES): CC(C)(C)P(=O)(Oc1ccccc1)Oc1ccc(NC(=O)CC(=O)c2ccccc2)cc1 (stereo not shown) [(129)]
Abs.max. (single maximum): 440 nm

Structure (SMILES): COc1ccc(C(=O)CC(=O)Nc2ccc(OP(=O)(Oc3ccccc3)C(C)(C)C)cc2)cc1 (stereo not shown) [(130)]
Abs.max. (single maximum): 437 nm

Structure (SMILES): COc1ccc(C(=O)CC(=O)Nc2cc(C(=O)NCCCP(=O)(OC(C)C)OC(C)C)ccc2C(=O)NCCCP(=O)(OC(C)C)OC(C)C)cc1 [(131)]
Abs.max. (single maximum): 442 nm

Abs.max. (single maximum): 438 nm
Structure (SMILES): CC(C)CCOP(=O)(CCCc1ccc(NC(=O)CC(=O)c2ccc(Cl)cc2)cc1)OCCC(C)C [(132)]

Abs.max. (single maximum): 436 nm
Structure (SMILES): CCCCC(CC)COP(=O)(CCCNC(=O)c1ccc(Cl)c(NC(=O)CC(=O)c2ccccc2OC)c1)OCC(CC)CCCC (stereo not shown) [(133)]

Abs.max. (single maximum): 447 nm
Structure (SMILES): CCCCC(CC)COP(=O)(CCNC(=O)c1ccc(Cl)c(NC(=O)CC(=O)c2ccc(OC)cc2)c1)OCC(CC)CCCC (stereo not shown) [(134)]

Structure (SMILES): CCCCOP(=O)(Cc1ccc(CP(=O)(OCCCC)OCCCC)c(NC(=O)c2ccc(OC)c(NC(=O)CC(=O)c3ccc(C(C)(C)C)cc3)c2)c1)OCCCC [(136)]
Abs.max. (single maximum): 440 nm

Structure (SMILES): CCCCOP(=O)(Cc1ccc(CP(=O)(OCCCC)OCCCC)c(NC(=O)c2ccc(OC)c(NC(=O)CC(=O)c3ccccc3OCC)c2)c1)OCCCC [(137)]
Abs.max. (single maximum): 425 nm

Structure (SMILES): CCCCOP(=O)(CCCC)Oc1cccc(NC(=O)Cc2ccc(NC(=O)CC(=O)c3ccccc3Cl)cc2)c1 (stereo not shown) [(138)]
Abs.max. (single maximum): 442 nm

Abs.max. (single maximum): 441 nm
Structure (SMILES): Cc1ccc(C(=O)NCCCP2(=O)OCC(C)(C)CO2)cc1NC(=O)CC(=O)c1ccc(Cl)cc1 [(139)]

Structure (SMILES): CC(C)OP(=O)(OC(C)C)C1(C)CC(NC(=O)c2ccc(Cl)c(NC(=O)CC(=O)c3ccc(C(C)(C)C)cc3)c2)CC(C)(C)C1 (stereo not shown) [(140)]
Abs.max. (single maximum): 439 nm

Abs.max. (single maximum): 438 nm
Structure (SMILES): CCCCOP(=O)(CCCC)Nc1cccc(NC(=O)c2cc(NC(=O)CC(=O)c3ccccc3)ccc2Cl)c1 (stereo not shown) [(141)]

Structure (SMILES): CCCCOP(=O)(OCCCC)C(CC)OC(=O)c1ccc(NC(=O)CC(=O)c2ccccc2OC)cc1 (stereo not shown) [(142)]
Abs.max. (single maximum): 435 nm

Structure (SMILES): CCCCOP(=O)(Cc1ccc(CP(=O)(OCCCC)OCCCC)c(NC(=O)c2ccc(C)c(NC(=O)CC(=O)c3ccccc3Cl)c2)c1)OCCCC [(143)]
Abs.max. (single maximum): 440 nm

Structure (SMILES): CC(C)OP(=O)(OC(C)C)C1(C)CC(NC(=O)c2ccc(Oc3ccccc3)c(NC(=O)CC(=O)c3ccc(Cl)cc3)c2)CC(C)(C)C1 (stereo not shown) [(144)]
Abs.max. (single maximum): 441 nm

Abs.max. (single maximum): 449 nm
Structure (SMILES): CCCCCCOP(=O)(OCCCCCC)c1ccc(NC(=O)c2cccc(NC(=O)CC(=O)c3ccc(Cl)cc3)c2)cc1 [(145)]

Structure (SMILES): COc1ccc(C(=O)C(Cl)C(=O)Nc2ccc(OP(=O)(Oc3ccccc3)C(C)(C)C)cc2)cc1 (stereo not shown) [(146)]
Abs.max. (single maximum): 437 nm

Structure (SMILES): CCCCOP(=O)(CCCc1ccc(NC(=O)C(Cl)C(=O)c2ccccc2)cc1)OCCCC (stereo not shown) [(147)]
Abs.max. (single maximum): 436 nm

Structure (SMILES): CCOP(=O)(CCCOc1cccc(C(=O)Nc2ccc(C(=O)NC3=NN(c4c(Cl)cc(Cl)cc4Cl)C(=O)C3)cc2)c1)OCC [(201)]
Abs.max., first of two maxima (subsidiary maximum): 432 nm | Abs.max., second of two maxima (absorption maximum): 542 nm

Structure (SMILES): CCOP(=O)(CCCOc1cccc(C(=O)NC2=NN(c3c(Cl)cc(Cl)cc3Cl)C(=O)C2)c1)OCC [(202)]
Abs.max., first of two maxima (subsidiary maximum): 434 nm | Abs.max., second of two maxima (absorption maximum): 535 nm

Structure (SMILES): CCOP(=O)(CCCOc1ccc(C(=O)Nc2ccc(C(=O)NC3=NN(c4c(Cl)cc(Cl)cc4Cl)C(=O)C3)cc2)cc1)OCC [(203)]
Abs.max., first of two maxima (subsidiary maximum): 434 nm | Abs.max., second of two maxima (absorption maximum): 539 nm

Structure (SMILES): CCOP(=O)(CCCOc1ccc(C(=O)NC2=NN(c3c(Cl)cc(Cl)cc3Cl)C(=O)C2)cc1)OCC [(204)]
Abs.max., first of two maxima (subsidiary maximum): 434 nm | Abs.max., second of two maxima (absorption maximum): 534 nm

Structure (SMILES): CCOP(=O)(CCCOc1cccc(C(=O)Nc2cccc(C(=O)NC3=NN(c4c(Cl)cc(Cl)cc4Cl)C(=O)C3)c2)c1)OCC [(205)]
Abs.max., first of two maxima (subsidiary maximum): 434 nm | Abs.max., second of two maxima (absorption maximum): 542 nm

Structure (SMILES): CCOP(=O)(CCCOc1ccc(C(=O)Nc2cccc(C(=O)NC3=NN(c4c(Cl)cc(Cl)cc4Cl)C(=O)C3)c2)cc1)OCC [(206)]
Abs.max., first of two maxima (subsidiary maximum): 434 nm | Abs.max., second of two maxima (absorption maximum): 542 nm

Structure (SMILES): CCOP(=O)(CCCCCOc1cccc(C(=O)Nc2ccc(C(=O)NC3=NN(c4c(Cl)cc(Cl)cc4Cl)C(=O)C3)cc2)c1)OCC [(207)]
Abs.max., first of two maxima (subsidiary maximum): 434 nm | Abs.max., second of two maxima (absorption maximum): 540 nm

Structure (SMILES): CCOP(=O)(CCCOc1cc(OCCCP(=O)(OCC)OCC)cc(C(=O)Nc2ccc(C(=O)NC3=NN(c4c(Cl)cc(Cl)cc4Cl)C(=O)C3)cc2)c1)OCC [(208)]
Abs.max., first of two maxima (subsidiary maximum): 434 nm | Abs.max., second of two maxima (absorption maximum): 546 nm

Structure (SMILES): CCOP(=O)(CCCOc1cc(OCCCP(=O)(OCC)OCC)cc(C(=O)NC2=NN(c3c(Cl)cc(Cl)cc3Cl)C(=O)C2)c1)OCC [(209)]
Abs.max., first of two maxima (subsidiary maximum): 436 nm | Abs.max., second of two maxima (absorption maximum): 540 nm

Structure (SMILES): CC(C)OP(=O)(CCCOc1cccc(C(=O)Nc2ccc(C(=O)NC3=NN(c4c(Cl)cc(Cl)cc4Cl)C(=O)C3)cc2)c1)OC(C)C [(210)]
Abs.max., first of two maxima (subsidiary maximum): 434 nm | Abs.max., second of two maxima (absorption maximum): 543 nm

Structure (SMILES): CCCCOP(=O)(CCCOc1cccc(C(=O)Nc2ccc(C(=O)NC3=NN(c4c(Cl)cc(Cl)cc4Cl)C(=O)C3)cc2)c1)OCCCC [(211)]
Abs.max., first of two maxima (subsidiary maximum): 434 nm | Abs.max., second of two maxima (absorption maximum): 543 nm
